Reference: patent US9750248B2, “Synergistic fungicidal compositions” (Dow AgroSciences LLC, priority 2012, dated 2017)

Legend:
Assay type in all cases: in vivo
[1] = tested on: Puccinia recondita-tritici (PUCCRT); test: Control of wheat brown rust in a field research trial; conditions: for B % DC: component B alone
Method: (§1) The Colby equation was used to determine the fungicidal effects expected from the mixtures. (See Colby, S. R. Calculation of the synergistic and antagonistic response of herbicide combinations, Weeds 1967, 15, 20-22.). More specifically, in Tables 1-5, Colby's equation was used to calculate the expected activity of mixtures containing two active ingredients, A and B: Expected=A+B−(A×B/100), wherein
The field trial was conducted at the Dow AgroSciences field station located at Mogi Mirim, Brazil. There were four replicate plots per treatment, with each plot 2×3.5 meters in length and width. The plots were sprayed with the treatments twice, once at growth stage BBCH 33 and again at growth stage BBCH 61-65. Treatments were applied with spray volumes of 150 liters/hectare (L/ha) with an XR flat fan nozzle. Disease development relied on natural inoculum (no artificial infestation). Ten plants per plot were used for each disease severity assessment, with all leaves per plant used for the assessment.

[2] = tested on: Puccinia recondita-tritici (PUCCRT); test: Control of wheat brown rust, three-day curative (3DC) application, greenhouse; conditions: for B % DC: component B alone; for A % DC: component A alone
Method: (§2) For the mixture studies with compound of Formula I: Treatments consisted of fungicides, including a compound of Formula I, tebuconazole, propiconazole, metconazole, and cyproconazole, applied either individually or as two-way mixtures with a compound of Formula I. Technical grades of materials were dissolved in acetone to make stock solutions which were used to perform three-fold dilutions in acetone for each individual fungicide component or for the two-way mixtures. Desired fungicide rates were obtained after mixing dilutions with nine volumes of water containing 110 parts per million (ppm) Triton X-100. The fungicide solutions (10 milliliters (mL)) were applied onto six pots of plants using an automated booth sprayer, which utilized two 6218-1/4 JAUPM spray nozzles operating at 20 pounds per square inch (psi) set at opposing angles to cover both leaf surfaces. All sprayed plants were allowed to air dry prior to further handling. Control plants were sprayed in the same manner with a solvent blank.
(§3) For the three-day curative experiments, plants were inoculated with an aqueous spore suspension of the pathogen of interest (either PUCCRT or SEPTTR) and then placed in a dew room from 1-3 days to allow for infection to occur. The plants were removed from the dew room, allowed to dry for approximately one hour (h), sprayed with the test materials formulated as described above, and then placed in the greenhouse for symptom development to occur as described previously.
(§4) When disease severity reached 50-100% on the control plants, infection levels were assessed on treated plants visually and scored on a scale of 0 to 100 percent. The percentage of disease control was then calculated using the ratio of disease on treated plants relative to control plants.
as §1

[3] = tested on: Septoria tritici (SEPTTR); test: Control of wheat leaf blotch, three-day curative (3DC) application, greenhouse; conditions: for B % DC: component B alone; for A % DC: component A alone
Method: as §2, §3, §4, §1

[4] = tested on: Septoria tritici (SEPTTR); test: Control of wheat leaf blotch, one-day protective (1DP) application, greenhouse; conditions: for B % DC: component B alone; for A % DC: component A alone
Method: as §2
(§5) For the one-day protectant experiments, the plants were inoculated with an aqueous spore suspension of the pathogen of interest (either PUCCRT or SEPTTR) and then placed in a dew room from 1-3 days to allow for infection to occur. The plants were then placed in the greenhouse for symptom development to occur. In the case of PUCCRT, symptoms typically appeared in 7-10 days while for SEPTTR symptoms typically appeared in 25-30 days.
as §4, §1

[5] = tested on: Puccinia recondita-tritici (PUCCRT); test: Control of wheat brown rust, one-day protective (1DP) application, greenhouse; conditions: for B % DC: component B alone; for A % DC: component A alone
Method: as §2, §5, §4, §1

COC(=O)N(OC)c1ccccc1COc1ccn(-c2ccc(Cl)cc2)n1 [Pyraclostrobin, pyraclostrobin]
B % DC ([1]; 60 g ai/ha): 85.8%

CC(C1CC1)C(O)(Cn1cncn1)c1ccc(Cl)cc1 (stereo not drawn) [Cyproconazole, α-(4-chlorophenyl)-α-(1-cyclopropylethyl)-1H-1,2,4-triazole-1-ethanol]
B % DC ([2]; 0.4 ppm): 82%
B % DC ([3]; 0.1 ppm): 44.0%
B % DC ([1]; 40 g ai/ha): 38%
B % DC ([4]; 0.4 ppm): 9%
B % DC ([4]; 1.6 ppm): 19%
B % DC ([5]; 0.1 ppm): 0%
B % DC ([5]; 0.4 ppm): 0%
B % DC ([5]; 1.6 ppm): 27%
B % DC ([5]; 6.3 ppm): 57%

CC1(C)CCC(Cc2ccc(Cl)cc2)C1(O)Cn1cncn1 (centres unmarked) [Metconazole, 5-[(4-chlorophenyl)methyl]-2,2-dimethyl-1-(1H-1,2,4-triazol-1-ylmethyl)cyclopentanol]
B % DC ([2]; 0.4 ppm): 4%
B % DC ([4]; 0.1 ppm): 9%
B % DC ([5]; 0.4 ppm): 0%
B % DC ([5]; 1.6 ppm): 8%
B % DC ([5]; 6.3 ppm): 87%

COc1ccnc(C(=O)N[C@H]2COC(=O)[C@H](Cc3ccccc3)[C@@H](OC(=O)C(C)C)[C@H](C)OC2=O)c1OCOC(=O)C(C)C [Cmpd I, (3S,6S,7R,8R)-8-benzyl-3-(3-((isobutyryloxy)methoxy)-4-methoxypicolinamido)-6-methyl-4,9-dioxo-1,5-dioxonan-7-yl isobutyrate]
A % DC ([2]; 0.1 ppm): 0%
A % DC ([2]; 0.4 ppm): 0%
A % DC ([2]; 1.6 ppm): 0%
A % DC ([2]; 6.3 ppm): 0%
A % DC ([3]; 0.1 ppm): 45.3%
A % DC ([3]; 1.6 ppm): 55.2%
A % DC ([3]; 6.3 ppm): 70.1%
A % DC ([1]; component A alone, 150 g ai/ha): 34.1%
A % DC ([4]; 0.1 ppm): 7%
A % DC ([4]; 0.4 ppm): 19%
A % DC ([4]; 1.6 ppm): 53%
A % DC ([5]; 0.4 ppm): 0%
A % DC ([5]; 1.6 ppm): 19.6%
A % DC ([5]; 6.3 ppm): 85.5%

CCCC1COC(Cn2cncn2)(c2ccc(Cl)cc2Cl)O1 (centres unmarked) [Propiconazole, 1-[[2-(2,4-dichlorophenyl)-4-propyl-1,3-dioxolan-2-yl]methyl]-1H-1,2,4-triazole]
B % DC ([2]; 1.6 ppm): 2%
B % DC ([2]; 6.3 ppm): 93%
B % DC ([4]; 0.1 ppm): 0%
B % DC ([4]; 1.6 ppm): 29%
B % DC ([4]; 6.3 ppm): 68%
B % DC ([5]; 0.1 ppm): 0%
B % DC ([5]; 1.6 ppm): 0%
B % DC ([5]; 6.3 ppm): 0%

CC(C)(C)C(O)(CCc1ccc(Cl)cc1)Cn1cncn1 (stereo not drawn) [Tebuconazole, α-[2-(4-chlorophenyl)ethyl]-α-(1,1-dimethylethyl)-1H-1,2,4-triazole-1-ethanol]
B % DC ([2]; 0.4 ppm): 2%
B % DC ([2]; 1.6 ppm): 87%
B % DC ([3]; 0.1 ppm): 23.0%
B % DC ([1]; 140 g ai/ha): 74.3%
B % DC ([4]; 0.4 ppm): 0%
B % DC ([4]; 1.6 ppm): 34%
B % DC ([5]; 0.1 ppm): 0%
B % DC ([5]; 0.4 ppm): 0%
B % DC ([5]; 1.6 ppm): 18%
B % DC ([5]; 6.3 ppm): 82%
